Article PMC8881512 (Nature Communications, 2022)
Where “and” joins values, the source holds several entries; their conditions need not be identical. Equal values may be shown once.

What was measured:
CK2a2 = target: T1, CK2a2 (Homo sapiens, UniProt P19784); test: Kinome profiling; format: biochemical; details: VT02956 (5 nM), read-out: % enzymatic activity relative to DMSO controls
T1 construct: LATS1/LATS2 enzymes from Signalchem

EPHA3 = target: T2, EPHA3 (Homo sapiens, UniProt P29320); test: Kinome profiling; format: biochemical; details: VT02956 (5 nM), read-out: % enzymatic activity relative to DMSO controls
T2 construct: LATS1/LATS2 enzymes from Signalchem

PRKX = target: T3, PRKX (Homo sapiens, UniProt P51817); test: Kinome profiling; format: biochemical; details: VT02956 (5 nM), read-out: % enzymatic activity relative to DMSO controls
T3 construct: LATS1/LATS2 enzymes from Signalchem

TXK = target: T4, TXK (Homo sapiens, UniProt P42681); test: Kinome profiling; format: biochemical; details: VT02956 (5 nM), read-out: % enzymatic activity relative to DMSO controls
T4 construct: LATS1/LATS2 enzymes from Signalchem

CDK9/cyclin T1 = target: T5, CDK9/cyclin T1 (Homo sapiens, UniProt P50750); test: Kinome profiling; format: biochemical; details: VT02956 (5 nM), read-out: % enzymatic activity relative to DMSO controls
T5 construct: LATS1/LATS2 enzymes from Signalchem

PKN1/PRK1 = target: T6, PKN1/PRK1 (Homo sapiens, UniProt Q16512); test: Kinome profiling; format: biochemical; details: VT02956 (5 nM), read-out: % enzymatic activity relative to DMSO controls
T6 construct: LATS1/LATS2 enzymes from Signalchem

WNK3 = target: T7, WNK3 (Homo sapiens, UniProt Q9BYP7); test: Kinome profiling; format: biochemical; details: VT02956 (5 nM), read-out: % enzymatic activity relative to DMSO controls
T7 construct: LATS1/LATS2 enzymes from Signalchem

KSR2 = target: T8, KSR2 (Homo sapiens, UniProt Q6VAB6); test: Kinome profiling; format: biochemical; details: VT02956 (5 nM), read-out: % enzymatic activity relative to DMSO controls
T8 construct: LATS1/LATS2 enzymes from Signalchem

[1] = tested on: Phospho-YAP (Ser127) in 4T1 cells; test: Cellular Phospho-YAP HTRF assay, 4T1; format: cell-based; details: for YAP phosphorylation: 4T1, Fig.5d
LATS2 = target: T9, LATS2 (Homo sapiens, UniProt Q9NRM7); test: Kinome profiling; format: biochemical; details: VT02956 (5 nM)
T9 construct: purchased Signalchem
T9 sequence (Q9NRM7 1-1088): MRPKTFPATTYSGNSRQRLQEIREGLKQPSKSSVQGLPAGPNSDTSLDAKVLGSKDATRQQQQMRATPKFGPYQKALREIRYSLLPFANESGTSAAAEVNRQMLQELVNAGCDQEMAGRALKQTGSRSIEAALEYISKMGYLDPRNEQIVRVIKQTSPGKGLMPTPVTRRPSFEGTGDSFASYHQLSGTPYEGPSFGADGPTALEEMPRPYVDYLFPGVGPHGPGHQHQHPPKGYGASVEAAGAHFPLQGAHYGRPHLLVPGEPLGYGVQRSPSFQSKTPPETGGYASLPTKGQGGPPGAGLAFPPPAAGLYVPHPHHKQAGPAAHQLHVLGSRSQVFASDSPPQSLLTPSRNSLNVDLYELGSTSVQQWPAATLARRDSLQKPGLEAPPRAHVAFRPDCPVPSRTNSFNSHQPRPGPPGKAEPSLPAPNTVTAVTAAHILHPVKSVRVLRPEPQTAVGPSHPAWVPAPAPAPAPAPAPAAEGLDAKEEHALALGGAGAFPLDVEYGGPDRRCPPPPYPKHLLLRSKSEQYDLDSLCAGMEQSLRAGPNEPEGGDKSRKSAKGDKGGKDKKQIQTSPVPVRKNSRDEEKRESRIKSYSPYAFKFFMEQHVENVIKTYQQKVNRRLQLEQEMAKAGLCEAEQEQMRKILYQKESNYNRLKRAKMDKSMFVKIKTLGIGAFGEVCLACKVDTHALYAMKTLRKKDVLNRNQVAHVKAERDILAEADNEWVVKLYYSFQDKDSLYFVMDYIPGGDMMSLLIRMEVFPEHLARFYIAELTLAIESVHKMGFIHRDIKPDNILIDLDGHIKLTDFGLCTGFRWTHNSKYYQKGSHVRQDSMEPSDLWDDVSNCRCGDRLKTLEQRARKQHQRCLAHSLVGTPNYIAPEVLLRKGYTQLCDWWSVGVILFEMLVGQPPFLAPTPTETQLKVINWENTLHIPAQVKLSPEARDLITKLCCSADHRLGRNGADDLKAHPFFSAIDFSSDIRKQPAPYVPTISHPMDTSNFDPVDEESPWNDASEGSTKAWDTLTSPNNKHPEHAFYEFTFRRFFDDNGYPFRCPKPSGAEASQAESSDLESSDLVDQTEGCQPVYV

BTK = target: T10, BTK (Homo sapiens, UniProt Q06187); test: Kinome profiling; format: biochemical; details: VT02956 (5 nM)
T10 construct: LATS1/LATS2 enzymes from Signalchem

MSK1/RPS6KA5 = target: T11, MSK1/RPS6KA5 (Homo sapiens, UniProt O75582); test: Kinome profiling; format: biochemical; details: VT02956 (5 nM), read-out: % enzymatic activity relative to DMSO controls
T11 construct: LATS1/LATS2 enzymes from Signalchem

[2] = tested on: ER+ breast tumour organoids (BTO-02); test: 3D organoids drug response assay (CellTiter-Glo 3D); format: cell-based, human; details: 3D drug killing assay; 12 days after compound treatment; Fig. 6b
Experimental: Breast tumour organoids were dissociated into single cells using TrypLE Express and counted with automated cell counter. Subsequently, 1000 cells were mixed in 10 μl BME type 2, seeded onto 96-well plate in triplicate and overlaid with 100 μl BC organoid medium (BOM) after BME gelation. Three days after organoids sphere formation, medium was removed and replaced by 100 μl of complete medium containing VT02956 (0, 0.04, 0.2, 1, 5 μM) or vehicle (DMSO). The drug-containing medium was refreshed every 3 days for additional 3–4 times. At the end of the treatment, the effect of the drugs on the tumour organoids, in terms of the organoids cell growth, was assayed with CellTiter-Glo 3D (Promega) according to the manufacturer’s instructions and were normalised to vehicle controls (0.5% DMSO content). The IC50 values was calculated in GraphPad Prism 8.

RSK1 = target: T12, RSK1 (Homo sapiens, UniProt Q15418); test: Kinome profiling; format: biochemical; details: VT02956 (5 nM), read-out: % enzymatic activity relative to DMSO controls
T12 construct: LATS1/LATS2 enzymes from Signalchem

CHK1 = target: T13, CHK1 (Homo sapiens, UniProt O14757); test: Kinome profiling; format: biochemical; details: VT02956 (5 nM)
T13 construct: LATS1/LATS2 enzymes from Signalchem

RIPK2 = target: T14, RIPK2 (Homo sapiens, UniProt O43353); test: Kinome profiling; format: biochemical; details: VT02956 (5 nM), read-out: % enzymatic activity relative to DMSO controls
T14 construct: LATS1/LATS2 enzymes from Signalchem

STK38/NDR1 = target: T15, STK38/NDR1 (Homo sapiens, UniProt Q15208); test: Kinome profiling; format: biochemical; details: VT02956 (5 nM), read-out: % enzymatic activity relative to DMSO controls
T15 construct: LATS1/LATS2 enzymes from Signalchem

T47D cells = test: Cell proliferation by cell counting, T47D; format: cell-based; details: 0.5 µM or 2 µM, time course to 8 days; Supplementary Fig. 8c, d
Experimental: (§1) Cell proliferation rates were determined by automated cell counter. In brief, cells were plated at density of 0.1 million cells per well in six-well plate. Cell numbers were counted by the indicated time point as stated in the figure legends.

AKT2 = target: T16, AKT2 (Homo sapiens, UniProt P31751); test: Kinome profiling; format: biochemical; details: VT02956 (5 nM), read-out: % enzymatic activity relative to DMSO controls
T16 construct: LATS1/LATS2 enzymes from Signalchem

MDA-MB-231 cells = test: Cell proliferation, MDA-MB-231; format: cell-based; details: 0.5 µM or 2 µM VT02956 for 4 days; Supplementary Fig. 8e
Experimental: as §1

CK2a = target: T17, CK2a (Homo sapiens, UniProt P68400); test: Kinome profiling; format: biochemical; details: VT02956 (5 nM), read-out: % enzymatic activity relative to DMSO controls
T17 construct: LATS1/LATS2 enzymes from Signalchem
T17 sequence (P68400 whole entry): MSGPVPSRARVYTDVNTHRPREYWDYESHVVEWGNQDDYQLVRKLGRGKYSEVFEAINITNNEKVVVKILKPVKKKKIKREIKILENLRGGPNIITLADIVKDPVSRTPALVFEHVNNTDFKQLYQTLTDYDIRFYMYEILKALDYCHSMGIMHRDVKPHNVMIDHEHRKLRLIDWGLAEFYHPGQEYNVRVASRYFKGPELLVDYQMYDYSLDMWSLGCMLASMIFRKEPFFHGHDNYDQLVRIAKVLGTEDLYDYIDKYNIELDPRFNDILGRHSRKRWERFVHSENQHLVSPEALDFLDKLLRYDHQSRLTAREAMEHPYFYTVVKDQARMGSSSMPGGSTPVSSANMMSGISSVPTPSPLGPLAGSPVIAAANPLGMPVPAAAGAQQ

T7 sequence (Q9BYP7 whole entry): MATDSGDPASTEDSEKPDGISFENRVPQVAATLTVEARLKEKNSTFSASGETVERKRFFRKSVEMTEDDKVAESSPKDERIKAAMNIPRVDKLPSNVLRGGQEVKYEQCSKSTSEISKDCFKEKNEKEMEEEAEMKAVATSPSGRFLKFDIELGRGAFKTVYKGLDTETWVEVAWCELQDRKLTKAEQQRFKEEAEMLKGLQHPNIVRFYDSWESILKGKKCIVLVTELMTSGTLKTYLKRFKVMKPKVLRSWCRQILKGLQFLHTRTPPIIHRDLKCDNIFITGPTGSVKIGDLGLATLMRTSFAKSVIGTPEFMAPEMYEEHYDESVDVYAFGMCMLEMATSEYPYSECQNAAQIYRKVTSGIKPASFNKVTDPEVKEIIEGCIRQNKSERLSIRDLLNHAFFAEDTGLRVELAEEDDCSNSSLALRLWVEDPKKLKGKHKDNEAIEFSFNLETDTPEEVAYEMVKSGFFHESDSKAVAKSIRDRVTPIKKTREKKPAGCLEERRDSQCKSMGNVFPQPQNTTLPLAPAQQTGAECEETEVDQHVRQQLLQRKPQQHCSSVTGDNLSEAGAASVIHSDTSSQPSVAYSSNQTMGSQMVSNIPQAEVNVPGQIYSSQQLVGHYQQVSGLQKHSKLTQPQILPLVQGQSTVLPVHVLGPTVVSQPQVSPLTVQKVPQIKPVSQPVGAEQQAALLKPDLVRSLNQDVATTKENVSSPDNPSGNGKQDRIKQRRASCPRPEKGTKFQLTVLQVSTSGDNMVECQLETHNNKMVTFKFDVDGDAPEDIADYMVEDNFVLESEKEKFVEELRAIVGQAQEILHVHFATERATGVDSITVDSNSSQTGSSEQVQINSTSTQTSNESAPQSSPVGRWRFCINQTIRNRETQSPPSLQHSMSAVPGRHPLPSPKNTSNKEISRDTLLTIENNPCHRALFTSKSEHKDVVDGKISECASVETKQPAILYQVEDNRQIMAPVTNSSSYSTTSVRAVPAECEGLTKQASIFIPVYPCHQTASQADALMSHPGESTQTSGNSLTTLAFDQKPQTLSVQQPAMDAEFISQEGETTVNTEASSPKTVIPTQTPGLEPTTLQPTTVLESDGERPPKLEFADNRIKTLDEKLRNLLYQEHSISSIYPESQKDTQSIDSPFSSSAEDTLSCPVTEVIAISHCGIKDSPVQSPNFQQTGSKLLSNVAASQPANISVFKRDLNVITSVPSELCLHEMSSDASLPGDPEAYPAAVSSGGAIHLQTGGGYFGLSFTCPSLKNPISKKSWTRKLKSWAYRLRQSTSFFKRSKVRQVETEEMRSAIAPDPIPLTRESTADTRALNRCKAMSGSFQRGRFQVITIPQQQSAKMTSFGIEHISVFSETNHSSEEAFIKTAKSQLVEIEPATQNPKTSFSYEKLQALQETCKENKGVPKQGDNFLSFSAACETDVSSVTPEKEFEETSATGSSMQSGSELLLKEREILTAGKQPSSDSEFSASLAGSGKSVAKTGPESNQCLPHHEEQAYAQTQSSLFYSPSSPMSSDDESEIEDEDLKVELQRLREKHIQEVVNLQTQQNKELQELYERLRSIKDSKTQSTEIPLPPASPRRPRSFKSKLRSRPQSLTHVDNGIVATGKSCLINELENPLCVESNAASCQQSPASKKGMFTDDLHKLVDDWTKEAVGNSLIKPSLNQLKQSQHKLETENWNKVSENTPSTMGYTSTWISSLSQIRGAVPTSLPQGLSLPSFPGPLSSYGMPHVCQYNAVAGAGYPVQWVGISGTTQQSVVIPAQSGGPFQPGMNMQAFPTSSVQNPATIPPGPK
T6 sequence (Q16512 whole entry): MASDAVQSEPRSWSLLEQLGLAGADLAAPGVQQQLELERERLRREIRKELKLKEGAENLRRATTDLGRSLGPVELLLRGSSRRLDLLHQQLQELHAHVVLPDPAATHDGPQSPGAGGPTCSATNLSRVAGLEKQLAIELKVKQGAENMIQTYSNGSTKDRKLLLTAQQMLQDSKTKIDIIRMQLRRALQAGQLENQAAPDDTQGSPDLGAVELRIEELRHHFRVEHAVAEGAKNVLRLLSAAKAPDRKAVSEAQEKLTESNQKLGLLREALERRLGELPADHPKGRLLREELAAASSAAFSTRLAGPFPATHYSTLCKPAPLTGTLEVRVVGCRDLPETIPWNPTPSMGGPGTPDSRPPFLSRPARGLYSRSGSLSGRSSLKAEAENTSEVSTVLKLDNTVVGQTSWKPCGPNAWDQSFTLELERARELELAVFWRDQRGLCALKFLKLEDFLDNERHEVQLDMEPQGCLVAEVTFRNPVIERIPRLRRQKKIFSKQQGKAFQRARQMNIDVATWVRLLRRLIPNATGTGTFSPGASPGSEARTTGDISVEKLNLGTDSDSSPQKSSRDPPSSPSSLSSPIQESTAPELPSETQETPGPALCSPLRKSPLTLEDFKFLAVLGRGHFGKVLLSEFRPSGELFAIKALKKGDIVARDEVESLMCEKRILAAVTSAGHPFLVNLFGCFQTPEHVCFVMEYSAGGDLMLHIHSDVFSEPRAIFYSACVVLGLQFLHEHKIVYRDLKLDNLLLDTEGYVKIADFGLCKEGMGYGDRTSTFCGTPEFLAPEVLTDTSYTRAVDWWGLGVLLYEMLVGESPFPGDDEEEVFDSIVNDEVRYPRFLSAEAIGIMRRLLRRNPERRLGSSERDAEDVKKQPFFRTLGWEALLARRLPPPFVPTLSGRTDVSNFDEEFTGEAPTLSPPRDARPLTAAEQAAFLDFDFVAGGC
T13 sequence (O14757 whole entry): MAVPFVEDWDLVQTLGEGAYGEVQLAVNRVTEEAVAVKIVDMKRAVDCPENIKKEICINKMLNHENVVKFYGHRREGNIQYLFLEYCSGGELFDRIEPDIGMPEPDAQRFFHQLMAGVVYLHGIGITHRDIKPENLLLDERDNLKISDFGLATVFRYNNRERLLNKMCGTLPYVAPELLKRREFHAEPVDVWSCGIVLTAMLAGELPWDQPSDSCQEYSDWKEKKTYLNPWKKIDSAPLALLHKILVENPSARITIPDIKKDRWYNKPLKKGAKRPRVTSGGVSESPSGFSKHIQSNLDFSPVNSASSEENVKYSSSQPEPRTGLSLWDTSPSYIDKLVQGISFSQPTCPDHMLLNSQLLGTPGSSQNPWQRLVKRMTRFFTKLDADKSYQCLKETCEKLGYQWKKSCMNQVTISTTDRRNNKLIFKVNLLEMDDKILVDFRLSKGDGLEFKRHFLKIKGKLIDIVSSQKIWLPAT
T8 sequence (Q6VAB6 whole entry): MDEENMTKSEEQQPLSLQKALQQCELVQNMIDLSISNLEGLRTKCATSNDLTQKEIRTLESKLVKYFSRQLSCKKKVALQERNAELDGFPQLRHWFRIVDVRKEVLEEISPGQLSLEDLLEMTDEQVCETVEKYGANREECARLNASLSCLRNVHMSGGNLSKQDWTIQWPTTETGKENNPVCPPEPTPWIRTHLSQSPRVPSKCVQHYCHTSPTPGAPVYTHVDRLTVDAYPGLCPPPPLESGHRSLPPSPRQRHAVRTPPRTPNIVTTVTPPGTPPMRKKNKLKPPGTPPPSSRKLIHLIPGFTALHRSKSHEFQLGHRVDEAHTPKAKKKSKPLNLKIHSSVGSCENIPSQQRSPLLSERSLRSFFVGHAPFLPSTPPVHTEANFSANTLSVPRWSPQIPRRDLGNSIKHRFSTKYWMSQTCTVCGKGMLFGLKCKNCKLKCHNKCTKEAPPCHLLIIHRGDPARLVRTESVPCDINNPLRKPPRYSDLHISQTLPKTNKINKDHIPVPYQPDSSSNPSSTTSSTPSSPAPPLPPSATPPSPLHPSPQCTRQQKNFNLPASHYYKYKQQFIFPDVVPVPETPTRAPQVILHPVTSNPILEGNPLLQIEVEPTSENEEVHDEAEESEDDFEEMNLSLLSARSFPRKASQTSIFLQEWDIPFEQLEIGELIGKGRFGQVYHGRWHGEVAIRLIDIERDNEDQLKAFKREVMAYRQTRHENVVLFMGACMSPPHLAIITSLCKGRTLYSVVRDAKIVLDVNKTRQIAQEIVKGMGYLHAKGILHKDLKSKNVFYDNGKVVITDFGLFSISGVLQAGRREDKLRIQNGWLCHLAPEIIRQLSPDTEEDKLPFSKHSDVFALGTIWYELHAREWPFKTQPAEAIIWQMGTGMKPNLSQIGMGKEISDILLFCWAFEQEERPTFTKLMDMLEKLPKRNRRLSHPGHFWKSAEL
T15 sequence (Q15208 whole entry): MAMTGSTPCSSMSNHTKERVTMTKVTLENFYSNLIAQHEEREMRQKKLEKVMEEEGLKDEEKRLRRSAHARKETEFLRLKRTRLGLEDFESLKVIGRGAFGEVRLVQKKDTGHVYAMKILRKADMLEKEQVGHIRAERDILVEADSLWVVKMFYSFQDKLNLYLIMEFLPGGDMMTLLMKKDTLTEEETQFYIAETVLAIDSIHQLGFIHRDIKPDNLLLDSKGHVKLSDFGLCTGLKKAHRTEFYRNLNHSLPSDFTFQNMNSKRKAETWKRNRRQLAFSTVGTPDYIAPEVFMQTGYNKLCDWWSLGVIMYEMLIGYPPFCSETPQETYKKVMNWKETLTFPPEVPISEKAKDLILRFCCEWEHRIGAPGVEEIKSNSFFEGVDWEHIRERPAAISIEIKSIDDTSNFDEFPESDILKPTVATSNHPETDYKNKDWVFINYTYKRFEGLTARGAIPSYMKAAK

For NCC1CCN(c2nc(-c3ccncc3)nc3c(C#CCO)cccc23)CC1 [VT02956], which remaining activity at 0.005 µM (CK2a2) is on record?
The remaining activity at 0.005 µM was 78%.

What about the remaining activity at 0.005 µM (EPHA3) of the same compound?
The remaining activity at 0.005 µM was 84%.

What about the remaining activity at 0.005 µM (PRKX) of the same compound?
Its remaining activity at 0.005 µM is 3%.

What about the remaining activity at 0.005 µM (TXK) of the same compound?
The remaining activity at 0.005 µM was 83%.

What about the remaining activity at 0.005 µM (CDK9/cyclin T1) of the same compound?
Its remaining activity at 0.005 µM is 80%.

What about the remaining activity at 0.005 µM (PKN1/PRK1) of the same compound?
Its remaining activity at 0.005 µM is 69%.

What about the remaining activity at 0.005 µM (WNK3) of the same compound?
Its remaining activity at 0.005 µM is 82%.

And the remaining activity at 0.005 µM (KSR2)?
Its remaining activity at 0.005 µM is 83%.

What about the YAP phosphorylation ([1]; Conc. 0.00457247 (µM)) of the same compound?
The YAP phosphorylation was 95.8709 and 110.479.

What about the YAP phosphorylation ([1]; Conc. 0.0137174 (µM)) of the same compound?
The YAP phosphorylation was 110.398 and 92.919.

What about the YAP phosphorylation ([1]; Conc. 0.0411523 (µM)) of the same compound?
The YAP phosphorylation was 99.5656 and 109.183.

What about the YAP phosphorylation ([1]; Conc. 0.123457 (µM)) of the same compound?
The YAP phosphorylation was 90.8642 and 77.798.

What about the YAP phosphorylation ([1]; Conc. 0.37037 (µM)) of the same compound?
Its YAP phosphorylation is 55.9969 and 62.3937.

And the IC50 ([1]; Mus musculus, 4T1 cells, read-out: YAP phosphorylation IC50)?
The IC50 was 430 nM.

And the “% enzymatic activity relative to DMSO controls” value (LATS2)?
Its value is 34%.

And the “% enzymatic activity relative to DMSO controls” value (BTK)?
Its value is 83%.

What about the remaining activity at 0.005 µM (MSK1/RPS6KA5) of the same compound?
The remaining activity at 0.005 µM was 49%.

And the “growth of ER+ breast tumour organoids (BTOs)” value [2]?
Its value is “sensitive”.

What about the remaining activity at 0.005 µM (RSK1) of the same compound?
Its remaining activity at 0.005 µM is 86%.

What about the “% enzymatic activity relative to DMSO controls” value (CHK1) of the same compound?
Its value is 80%.

What about the remaining activity at 0.005 µM (RIPK2) of the same compound?
The remaining activity at 0.005 µM was 75%.

And the remaining activity at 0.005 µM (STK38/NDR1)?
The remaining activity at 0.005 µM was 16%.

And the T47D proliferation (T47D cells)?
The T47D proliferation was “inhibited the proliferation of MCF-7 and T47D cells”.

What about the remaining activity at 0.005 µM (AKT2) of the same compound?
The remaining activity at 0.005 µM was 85%.

What about the “growth of ER negative breast cancer MDA-MB-231 cells” value (MDA-MB-231 cells) of the same compound?
Its value is “had little effect”.

What about the remaining activity at 0.005 µM (CK2a) of the same compound?
The remaining activity at 0.005 µM was 85%.
